In US9681664B2, “Macrocyclic picolinamides as fungicides” (Dow Agrosciences LLC, priority 2012, dated 2017):
Read-outs that look alike come from different tables or passages of the source.

What was measured:
Type in all cases: in vivo
[1] = tested on: Puccinia triticina; Synonym: Puccinia recondite f. sp. tritici; test: Wheat brown rust (PUCCRT) disease control on wheat seedlings; conditions: Puccinia triticina; for pest or weed control at 100 ppm: High volume application; for pest or weed control at 121.5 g/ha: Wheat Brown Rust, low volume application, 121.5 g/H
Outline: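 Yuma wheat grown to first fully emerged leaf was inoculated with Puccinia triticina spore suspension either before or after fungicide treatment, held overnight at 22° C. and 100% RH in darkness, then kept at 24° C. Fungicide applied by booth sprayer to run-off (acetone/water, 110 ppm Triton X-100) or as EC by track spray.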

Uncinula necator = test: Grape powdery mildew (UNCINE) disease control; conditions: Erysiphe necator, 24 h, High volume application, 1 Day Protectant, read-out: UNCINE 1 DP disease control
Method: Technical grades of materials were dissolved in acetone, which were then mixed with nine volumes of water containing 110 ppm Triton X-100. The fungicide solutions were applied onto wheat seedlings using an automated booth sprayer to run-off. All sprayed plants were allowed to air dry prior to further handling. All fungicides were evaluated using the aforementioned method for their activity vs. all target diseases. Wheat leaf blotch and brown rust activity were also evaluated using track spray applications, in which case the fungicides were formulated as EC formulations, containing 0.1% Trycol 5941 in the spray solutions. Grape seedlings (variety Carignane) were grown in soil-less Metro mix, with one plant per pot, and used in the test when approximately one month old. Plants were inoculated 24 hr after fungicide treatment by shaking spores from infected leaves over test plants. Plants were maintained in a greenhouse set at 20° C. until disease was fully developed. Fungicide formulation, application and disease assessment on the sprayed leaves followed the procedures as described in the Example A.

Cercospora beticola = test: Leaf spot of sugar beets (CERCBE) disease control; conditions: 24 h, 1 Day Protectant, high volume, read-out: Disease Control CERCBE 1 DP
Method: Technical grades of materials were dissolved in acetone, which were then mixed with nine volumes of water containing 110 ppm Triton X-100. The fungicide solutions were applied onto wheat seedlings using an automated booth sprayer to run-off. All sprayed plants were allowed to air dry prior to further handling. All fungicides were evaluated using the aforementioned method for their activity vs. all target diseases. Wheat leaf blotch and brown rust activity were also evaluated using track spray applications, in which case the fungicides were formulated as EC formulations, containing 0.1% Trycol 5941 in the spray solutions. Sugar beet plants (variety HH88) were grown in soil-less Metro mix and trimmed regularly to maintain a uniform plant size prior to test. Plants were inoculated with a spore suspension 24 hr after fungicide treatments. Inoculated plants were kept in a dew chamber at 22° C. for 48 hr then incubated in a greenhouse set at 24° C. under a clear plastic hood with bottom ventilation until disease symptoms were fully expressed. Fungicide formulation, application and disease assessment on the sprayed leaves followed the procedures as described in the Example A.

[2] = tested on: Blumeria graminis f. sp. hordei; Synonym: Erysiphe graminis f. sp. hordei; test: Barley powdery mildew (ERYSGH) disease control; conditions: 24 h, 1 Day Protectant, high volume, read-out: Disease Control ERYSGH 1 DP
Method: (§1) Technical grades of materials were dissolved in acetone, which were then mixed with nine volumes of water containing 110 ppm Triton X-100. The fungicide solutions were applied onto wheat seedlings using an automated booth sprayer to run-off. All sprayed plants were allowed to air dry prior to further handling. All fungicides were evaluated using the aforementioned method for their activity vs. all target diseases. Wheat leaf blotch and brown rust activity were also evaluated using track spray applications, in which case the fungicides were formulated as EC formulations, containing 0.1% Trycol 5941 in the spray solutions. Barley seedlings (variety Harrington) were propagated in soil-less Metro mix, with each pot having 8 to 12 plants, and used in the test when first leaf was fully emerged. Test plants were inoculated by dusting with infected stock plants 24 hr after fungicide treatments. After inoculation the plants were kept in a greenhouse set at 20° C. for disease to develop. Fungicide formulation, application and disease assessment on the sprayed leaves followed the procedures as described in the Example A.

Rhyncosporium secalis = test: Barley scald (RHYNSE) disease control; conditions: 24 h, High volume application, 1 Day Protectant, read-out: RHYNSE 1 DP disease control
Method: as §1, with “inoculated by an aqueous spore suspension of Rhyncosporium secalis 24 hr” for “inoculated by dusting with infected stock plants 24 hr”, “kept in a dew room at 20° C. with 100% relative humidity for 48 hr. The plants were then transferred to a greenhouse” for “kept in a greenhouse”

[3] = 24 h, 1 Day Protectant, read-out: PUCCRT 1DP disease control
[4] = 72 h, 3 Day Curative, read-out: PUCCRT 3DC disease control

`COc1ccnc(C(=O)N[C@H]2CCC[C@H](OCCCC(F)(F)F)[C@@H](OC3CCCC3)[C@H](C)OC2=O)c1OCOC(C)=O` [F172] was tested, and the pest or weed control at 100 ppm [1, 3] was 80 to 100%, the pest or weed control at 100 ppm [1, 4] was 80 to 100% and the pest or weed control at 100 ppm (Uncinula necator) was 0 to 80%. It also gave a pest or weed control at 100 ppm (Cercospora beticola) of 80 to 100%, a pest or weed control at 100 ppm [2] of 0 to 80% and a pest or weed control at 100 ppm (Rhyncosporium secalis) of 80 to 100%.

`COc1ccc(O[C@H]2CCC[C@H](NC(=O)c3nccc(OC)c3OCOC(C)=O)C(=O)O[C@@H](C)[C@@H]2OC2CCCC2)cc1` [F170] showed a pest or weed control at 100 ppm [1, 3] of 80 to 100%, a pest or weed control at 100 ppm [1, 4] of 80 to 100% and a pest or weed control at 100 ppm (Uncinula necator) of 0 to 80%. For the same compound, the pest or weed control at 100 ppm (Cercospora beticola) was 80 to 100%, the pest or weed control at 100 ppm [2] was 0 to 80% and the pest or weed control at 100 ppm (Rhyncosporium secalis) was 80 to 100%.

For `COc1ccnc(C(=O)N[C@H]2CCC[C@H](OCC(C)C)[C@@H](OC)[C@H](C)OC2=O)c1OCOC(=O)C(C)C` [F254], the pest or weed control at 121.5 g/ha ([1]; 24 h, 1 Day Protectant, read-out: Disease Control PUCCRT 1 DP 121.5 g/H) was 80 to 100%, the pest or weed control at 121.5 g/ha ([1]; 72 h, 3 Day Curative, read-out: Disease Control PUCCRT 3 DC 121.5 g/H) was 80 to 100% and the pest or weed control at 100 ppm (Uncinula necator) was 0 to 80%. It also gave a pest or weed control at 100 ppm (Cercospora beticola) of 0 to 80%, a pest or weed control at 100 ppm [2] of 0 to 80% and a pest or weed control at 100 ppm (Rhyncosporium secalis) of 80 to 100%.

For `COc1ccnc(C(=O)N[C@H]2CCC[C@H](OCCCC(F)(F)F)[C@@H](OC3CCCC3)[C@H](C)OC2=O)c1OCOC(=O)C(C)C` [F171], the pest or weed control at 100 ppm [1, 3] was 80 to 100%, the pest or weed control at 100 ppm [1, 4] was 80 to 100% and the pest or weed control at 100 ppm (Uncinula necator) was 0 to 80%. For the same compound, the pest or weed control at 100 ppm (Cercospora beticola) was 80 to 100%, the pest or weed control at 100 ppm [2] was 0 to 80% and the pest or weed control at 100 ppm (Rhyncosporium secalis) was 80 to 100%.

Compound `COCCC(=O)Oc1c(OC)ccnc1C(=O)N[C@H]1CCC[C@H](Oc2ccccc2)[C@@H](OCCCc2ccccc2)[C@H](C)OC1=O` [F132] has a pest or weed control at 100 ppm [1, 3] of 80 to 100%, a pest or weed control at 100 ppm [1, 4] of 80 to 100% and a pest or weed control at 100 ppm (Uncinula necator) of 0 to 80%. The pest or weed control at 100 ppm (Cercospora beticola) was 0 to 80%, the pest or weed control at 100 ppm [2] was 0 to 80% and the pest or weed control at 100 ppm (Rhyncosporium secalis) was 0 to 80%.

With `COc1ccnc(C(=O)N[C@H]2CCC[C@H](OCCCc3ccccc3)[C@@H](Oc3ccccc3)[C@H](C)OC2=O)c1OC(C)=O` [F134] the pest or weed control at 100 ppm [1, 3] was 80 to 100%, the pest or weed control at 100 ppm [1, 4] was 80 to 100% and the pest or weed control at 100 ppm (Uncinula necator) was 0 to 80%. The pest or weed control at 100 ppm (Cercospora beticola) was 80 to 100%, the pest or weed control at 100 ppm [2] was 0 to 80% and the pest or weed control at 100 ppm (Rhyncosporium secalis) was 80 to 100%.

`COc1ccnc(C(=O)N[C@H]2CCC[C@H](OCCCC(F)(F)F)[C@@H](OC3CCCC3)[C@H](C)OC2=O)c1OC(C)=O` [F173] was tested, and the pest or weed control at 100 ppm [1, 3] was 80 to 100%, the pest or weed control at 100 ppm [1, 4] was 80 to 100% and the pest or weed control at 100 ppm (Uncinula necator) was 0 to 80%. For the same compound, the pest or weed control at 100 ppm (Cercospora beticola) was 80 to 100%, the pest or weed control at 100 ppm [2] was 0 to 80% and the pest or weed control at 100 ppm (Rhyncosporium secalis) was 80 to 100%.

In the case of `CCCO[C@H]1CCC[C@H](NC(=O)c2nccc(OC)c2OC(=O)CCOC)C(=O)O[C@@H](C)[C@@H]1Oc1ccccc1` [F140], the pest or weed control at 100 ppm [1, 3] is reported as 80 to 100%, the pest or weed control at 100 ppm [1, 4] is reported as 80 to 100% and the pest or weed control at 100 ppm (Uncinula necator) is reported as 0 to 80%. For the same compound, the pest or weed control at 100 ppm (Cercospora beticola) was 80 to 100%, the pest or weed control at 100 ppm [2] was 0 to 80% and the pest or weed control at 100 ppm (Rhyncosporium secalis) was 80 to 100%.
